# Where two headings read alike, the source gives them in different places.
# What was measured:
# K. pneumoniae 225 [1] = assay: NCCLS microdilution susceptibility test; assay type: cell-based, Klebsiella pneumoniae
# K. pneumoniae 225 [2] = assay: NCCLS disk diffusion assay; assay type: cell-based, Klebsiella pneumoniae; conditions: Kleb 225; for Zone Size: disk diffusion
# K. pneumoniae = assay: Agar dilution MIC, South African isolates; assay type: cell-based, Klebsiella pneumoniae; conditions: tzp with tazobactam 4 μg/ml
# Source text: (§1) The strains were provided in response to a request for all strains of Enterobacteriaceae, lacking inducible beta-lactamases, that were intermediate or resistant to cefotaxime or ceftazidime. […]
# E. coli = assay: Agar dilution MIC, South African isolates; assay type: cell-based, Escherichia coli; conditions: tzp with tazobactam 4 μg/ml
# Source text: as §1
# P. mirabilis = assay: Agar dilution MIC, South African isolates; assay type: cell-based, Proteus mirabilis; conditions: 4 strains, tzp with tazobactam 4 μg/ml
# Source text: During a period of three months in 1993, […] strains of Klebsiella pneumoniae (13 blood, 5 burn, 7 wound, 11 tracheal isolates), 4 strains of Proteus mirabilis (all wound isolates) and 4 strains of Escherichia coli (1 blood, 1 burn, 2 wound isolates) were collected from patients at the following medical centers in South Africa: Tygerberg Hospital near Cape Town, King Edward VIII Hospital in Durban, Chris Hani Baragwanath Hospital in Soweto and Pretoria Academic Hospital in Pretoria. The strains were provided in response to a request for all strains of Enterobacteriaceae, lacking inducible beta-lactamases, that were intermediate or resistant to cefotaxime or ceftazidime. […] Therefore accurate prevalence data were not obtained.
# Antibiotic susceptibility was determined by standard disk diffusion (NCCLS Standard M2-T4, 1994) and agar dilution (NCCLS Standard M7-T2, 1994) procedures. Standard powders of antimicrobial agents were kindly provided by the following companies: piperacillin and tazobactam (Lederle Laboratories, Wayne, N.J.); cefoxitin and imipenem, (Merck, Rathway, N.J.); cefotaxime, (Hoechst-Roussel Pharmaceuticals Inc., Somerville, N.J.); ceftazidime, (Glaxo Group Research Ltd., Greenford, England); aztreonam and cefepime, (Bristol-Myers Squibb, Princeton, N.J.). Disks for agar diffusion were obtained from Becton Dickinson Microbiology Systems (Cockeysville, Md.). For quality control purposes, the following quality control strains were run simultaneously with the test organisms E. coli ATCC 25922, Pseudomonas aeruginosa ATCC 27853, E. coli ATCC 35218, and Staphylococcus aureus ATCC 29213. Throughout this study, results were interpreted using NCCLS criteria for disk diffusion (NCCLS Standard M2-T4, 1994) and broth dilution (NCCLS Standard M7-T2, 1994).
# E. aerogenes [3] = assay type: cell-based, Enterobacter aerogenes
# Protocol: Antibiotic susceptibilities were determined by standard disk-diffusion (NCCLS Standard M2-A6) and agar-dilution (NCCLS Standard M7-A4) procedures. Disks were obtained from Becton Dickinson Microbiology Systems (Cockeysville, Md.). […] Throughout this study, results were interpreted using NCCLS criteria for disk diffusion (NCCLS M2-A6) and broth dilution (NCCLS M7-A4).
# [4] = tested on: E. coli HB101 transformant (17 kb plasmid); conditions: disk diffusion, Tr (17 kb) = transformant E. coli HB101
# [5] = tested on: E. coli C600 transconjugant; conditions: disk diffusion, Tc = transconjugate E. coli C600
# K. pneumoniae 225 [6] = assay: MicroScan Walkaway microdilution susceptibility test; assay type: cell-based, Klebsiella pneumoniae; conditions: for MIC: Klebsiella pneumoniae, 225, read-out: MicroScan MIC; for MicroScan susceptibility result: K. pneumoniae 225
# E. aerogenes [7] = assay: Disk diffusion susceptibility test; assay type: cell-based, Enterobacter aerogenes; conditions: all the E. aerogenes strains
# Protocol: (§2) Antibiotic susceptibilities were determined by standard disk-diffusion (NCCLS Standard M2-A6) and agar-dilution (NCCLS Standard M7-A4) procedures. Disks were obtained from Becton Dickinson Microbiology Systems (Cockeysville, Md.). Disk-diffusion susceptibilities to the following antibiotics were determined, ampicillin; amoxicillin clavulanic acid; aztreonam; cefazolin; cefoxitin; cefuroxime; cefotaxime; ceftriaxone; ceftazidime; cefepime; imipenem; gentamicin; trimethoprim/sulfamethoxazole and ciprofloxacin. […] The following quality control strains were run simultaneously with the test organisms Escherichia coli ATCC 25922, Pseudomonas aeruginosa ATCC 27853, and E. coli ATCC 35218. Throughout this study, results were interpreted using NCCLS criteria for disk diffusion (NCCLS M2-A6) and broth dilution (NCCLS M7-A4).
# K. pneumoniae 225 [8] = assay: Three-dimensional test (enzymatic inactivation of antibiotics); conditions: beta-lactamase-mediated hydrolysis by K. pneumoniae 225, lawn E. coli ATCC 25922
# [9] = tested on: beta-lactamases in sonic extracts of E. aerogenes; assay: Isoelectric focusing overlay: cefotaxime hydrolysis, inhibitors, induction; conditions: cefoxitin at 1/4 of the MIC
# [10] = tested on: E. coli C600N transconjugants; assay: Susceptibility of transconjugants; assay type: cell-based, Escherichia coli; conditions: E. coli C600N transconjugants of E. aerogenes 187, 200, 220, 184
# Protocol: as §2
# […]. The filter paper mating technique with overnight incubation at 37° C. were performed as described previously (Philippon et al., Antimicrob. Agents Chemother., 33:1131-1136 (1989)). Transconjugants were selected on LB (Luria Bertani) agar [Difco (Detroit, Mich.)] plates containing 12 μg per ml nalidixic acid and 20 μg per ml ampicillin.
# [11] = resistance phenotype Kpn1, 8 strains
# [12] = resistance phenotype Kpn2, 28 strains
# [13] = resistance phenotype Kpn3 (K. pneumoniae Pit 68), 1 strain
# [14] = resistance phenotype Ec1, 3 strains
# [15] = resistance phenotype Ec2, 1 strain
# [16] = 1 E. aerogenes strain with Bush group 1 and group 2be (SHV-3) enzymes
# [17] = 1 E. aerogenes strain with Bush group 1 and group 2be (SHV-5) enzymes
# [18] = 29 E. aerogenes strains with Bush group 1 and group 2be (SHV-4) enzymes
compound,measurement,setting,value
C[C@@H](O)[C@H]1C(=O)N2C(C(=O)O)=C(SCCN=CN)C[C@H]12 [imipenem],MIC,"K. pneumoniae 225 [1]; Klebsiella pneumoniae, 225",1 µg/mL
same,Zone Size,K. pneumoniae 225 [2],22 mm
same,MIC range,K. pneumoniae; [11],0.12 µg/mL
same,MIC range,K. pneumoniae; [12],0.12 to 1 µg/mL
same,MIC range,K. pneumoniae; [13],0.12 µg/mL
same,MIC range,E. coli; [14],0.12 µg/mL
same,MIC range,E. coli; [15],0.12 µg/mL
same,MIC range,P. mirabilis,0.5 to 1 µg/mL
same,MIC range,E. aerogenes [3]; [16],0.5 µg/mL
same,MIC range,E. aerogenes [3]; [17],1 µg/mL
same,MIC range,E. aerogenes [3]; [18],0.5 µg/mL
same,Zone Size,[4],33 mm
same,Zone Size,[5],23 mm
O=C(O)c1cn(C2CC2)c2cc(N3CCNCC3)c(F)cc2c1=O [ciprofloxacin],MIC,"K. pneumoniae 225 [1]; Klebsiella pneumoniae, 225",0.5 µg/mL
same,MIC,K. pneumoniae 225 [6],2 µg/mL
same,Disk diffusion interpretation,K. pneumoniae 225 [2],susceptible
same,Zone Size,K. pneumoniae 225 [2],22 mm
same,Disk diffusion susceptibility,E. aerogenes [7],susceptible
same,Zone Size,[4],31 mm
same,Zone Size,[5],31 mm
C=CC1=C(C(=O)O)N2C(=O)[C@@H](NC(=O)/C(=N\OCC(=O)O)c3csc(N)n3)[C@H]2SC1 [cefixime],MIC,"K. pneumoniae 225 [1]; Klebsiella pneumoniae, 225",> 64 µg/mL
CO/N=C(\C(=O)N[C@@H]1C(=O)N2C(C(=O)[O-])=C(C[N+]3(C)CCCC3)CS[C@H]12)c1csc(N)n1 [cefepime],MIC,"K. pneumoniae 225 [1]; Klebsiella pneumoniae, 225",1 µg/mL
same,MIC range,K. pneumoniae; [12],0.5 to 4 µg/mL
same,MIC range,E. coli; [15],2 µg/mL
same,MIC range,P. mirabilis,2 µg/mL
C[C@@H](O)[C@H]1C(=O)N2C(C(=O)O)=C(S[C@@H]3CN[C@H](C(=O)N(C)C)C3)[C@H](C)[C@H]12 [meropenem],MIC,"K. pneumoniae 225 [1]; Klebsiella pneumoniae, 225",0.06 µg/mL
CO[C@@]1(NC(=O)Cc2cccs2)C(=O)N2C(C(=O)O)=C(COC(N)=O)CS[C@@H]21 [cefoxitin],MIC,"K. pneumoniae 225 [1]; Klebsiella pneumoniae, 225",> 64 µg/mL
same,Zone Size,K. pneumoniae 225 [2],6 mm
same,MIC range,K. pneumoniae; [11],2 to 4 µg/mL
same,MIC range,K. pneumoniae; [12],2 to 8 µg/mL
same,MIC range,K. pneumoniae; [13],> 128 µg/mL
same,MIC range,"K. pneumoniae; resistance phenotype Kpn3 (K. pneumoniae Pit 68), 1 strain, listed as fox",>128 µg/mL
same,MIC range,E. coli; [14],4 µg/mL
same,MIC range,E. coli; [15],8 µg/mL
same,MIC range,P. mirabilis,2 to 4 µg/mL
same,MIC range,E. aerogenes [3]; [16],>256 µg/mL
same,MIC range,E. aerogenes [3]; [17],>256 µg/mL
same,MIC range,E. aerogenes [3]; [18],>256 µg/mL
same,Zone Size,[4],25 mm
same,Zone Size,[5],7 mm
same,three dimensional test,K. pneumoniae 225 [8],positive
same,Inducible by cefoxitin,"[9]; SHV-3 strain (1), Bush group 1 enzyme pI 8.3",yes
same,Inducible by cefoxitin,"[9]; SHV-3 strain (1), Bush group 2be enzyme pI 6.9",no
same,Inducible by cefoxitin,"[9]; SHV-4 strains (29), Bush group 1 enzyme pI 8.3",yes
same,Inducible by cefoxitin,"[9]; SHV-4 strains (29), Bush group 2be enzyme pI 7.8",no
same,Inducible by cefoxitin,"[9]; SHV-5 strain (1), Bush group 1 enzyme pI 8.3",yes
same,Inducible by cefoxitin,"[9]; SHV-5 strain (1), Bush group 2Be enzyme pI 8.0",no
CO/N=C(\C(=O)N[C@@H]1C(=O)N2C(C(=O)O)=C(COC(N)=O)CS[C@H]12)c1ccco1 [cefuroxime],MicroScan susceptibility result,K. pneumoniae 225 [6],Resistant
same,MIC,K. pneumoniae 225 [6],> 16 µg/mL
same,Disk diffusion susceptibility,E. aerogenes [7],resistant
CO[C@@]1(NC(=O)C2SC(=C(C(N)=O)C(=O)O)S2)C(=O)N2C(C(=O)O)=C(CSc3nnnn3C)CS[C@@H]21 (stereo partly shown) [cefotetan],MIC,K. pneumoniae 225 [6],16 µg/mL
same,Zone Size,K. pneumoniae 225 [2],12 mm
same,Zone Size,[4],30 mm
same,Zone Size,[5],11 mm
COCC1=C(C(=O)O)N2C(=O)[C@@H](NC(=O)/C(=N\OC)c3csc(N)n3)[C@H]2SC1 [cefpodoxime],MIC,"K. pneumoniae 225 [1]; Klebsiella pneumoniae, 225",64 µg/mL
CC1COc2c(N3CCN(C)CC3)c(F)cc3c(=O)c(C(=O)O)cn1c23 (stereo not shown) [ofloxacin],MIC,K. pneumoniae 225 [6],2 µg/mL
O=C1CN(/N=C/c2ccc([N+](=O)[O-])o2)C(=O)N1 [nitrofurantoin],MIC,K. pneumoniae 225 [6],> 64 µg/mL
CC(=O)OCC1=C(C(=O)O)N2C(=O)[C@@H](NC(=O)Cc3cccs3)[C@H]2SC1 [cephalothin],MIC,"K. pneumoniae 225 [1]; Klebsiella pneumoniae, 225",> 64 µg/mL
Cc1nnc(SCC2=C(C(=O)O)N3C(=O)[C@@H](NC(=O)Cn4cnnn4)[C@H]3SC2)s1 [cefazolin],MIC,"K. pneumoniae 225 [1]; Klebsiella pneumoniae, 225",> 64 µg/mL
same,Disk diffusion susceptibility,E. aerogenes [7],resistant
O=C(N[C@H](CO)[C@H](O)c1ccc([N+](=O)[O-])cc1)C(Cl)Cl [chloramphenicol],MicroScan susceptibility result,K. pneumoniae 225 [6],Resistant
same,MIC,K. pneumoniae 225 [6],> 16 µg/mL
same,Zone Size,K. pneumoniae 225 [2],8 mm
same,Zone Size,[4],22 mm
same,Zone Size,[5],12 mm
CC1(C)S[C@@H]2[C@H](NC(=O)[C@H](N)c3ccccc3)C(=O)N2[C@H]1C(=O)O [ampicillin],Disk diffusion susceptibility,E. aerogenes [7],resistant
same,Zone Size,[4],7 mm
C[C@H]1COc2c(N3CCN(C)CC3)c(F)cc3c(=O)c(C(=O)O)cn1c23 [levofloxacin],MIC,K. pneumoniae 225 [6],2 µg/mL
gentamicin,MicroScan susceptibility result,K. pneumoniae 225 [6],Resistant
same,Zone Size,K. pneumoniae 225 [2],8 mm
same,MIC range,E. aerogenes [3]; [16],8 µg/mL
same,MIC range,E. aerogenes [3]; [17],>128 µg/mL
same,MIC range,E. aerogenes [3]; [18],1 to 16 µg/mL
same,susceptibility after transfer of plasmids encoding SHV beta-lactamase genes,[10],resistance
same,Zone Size,[4],25 mm
same,Zone Size,[5],8 mm
piperacillin/tazobactam,Zone Size,K. pneumoniae 225 [2],15 mm
same,MIC range,K. pneumoniae; [11],2 to 4 µg/mL
same,MIC range,K. pneumoniae; [13],16 µg/mL
same,MIC range,E. coli; [14],1 µg/mL
same,MIC range,E. coli; [15],32 µg/mL
same,MIC range,P. mirabilis,0.25 to 0.5 µg/mL
same,Zone Size,[4],30 mm
same,Zone Size,[5],14 mm
amoxicillin/clavulanate,MIC,"K. pneumoniae 225 [1]; NCCLS microdilution, Mueller-Hinton broth, K. pneumoniae 225",64 µg/mL
same,Disk diffusion susceptibility,E. aerogenes [7],resistant
CC1(C)S[C@@H]2[C@H](NC(=O)[C@H](C(=O)O)c3ccsc3)C(=O)N2[C@H]1C(=O)O [ticarcillin],MIC,"K. pneumoniae 225 [1]; Klebsiella pneumoniae, 225",> 64 µg/mL
CCN1CCN(C(=O)N[C@@H](C(=O)N[C@@H]2C(=O)N3[C@@H]2SC(C)(C)[C@@H]3C(=O)O)c2ccccc2)C(=O)C1=O [piperacillin],MIC,"K. pneumoniae 225 [1]; Klebsiella pneumoniae, 225",> 64 µg/mL
same,MIC range,K. pneumoniae; [13],64 µg/mL
same,MIC range,E. coli; [14],>128 µg/mL
same,MIC range,E. coli; [15],>128 µg/mL
same,MIC range,P. mirabilis,128 µg/mL
NCC[C@H](O)C(=O)N[C@@H]1C[C@H](N)[C@@H](O[C@H]2O[C@H](CN)[C@@H](O)[C@H](O)[C@H]2O)[C@H](O)[C@H]1O[C@H]1O[C@H](CO)[C@@H](O)[C@H](N)[C@H]1O [amikacin],MicroScan susceptibility result,K. pneumoniae 225 [6],Resistant
same,MIC,K. pneumoniae 225 [6],> 32 µg/mL
same,Zone Size,[4],12 mm
NC[C@H]1O[C@H](O[C@H]2[C@H](O)[C@@H](O[C@H]3O[C@H](CO)[C@@H](O)[C@H](N)[C@H]3O)[C@H](N)C[C@@H]2N)[C@H](N)C[C@@H]1O [tobramycin],MicroScan susceptibility result,K. pneumoniae 225 [6],Resistant
same,MIC,K. pneumoniae 225 [6],> 8 µg/mL

# From patent US6893846B2, “Primers for use in detecting beta-lactamases” (priority 1998, dated 2005)
